We go through 15 compounds from ChEMBL document CHEMBL1132874, “Synthesis and structure-activity relationship of novel pyridyl ethers for the nicotinic acetylcholine receptor” (Bioorg Med Chem Lett, 2000).

Chain of Neuronal acetylcholine receptor; alpha4/beta2 (P09483 whole entry): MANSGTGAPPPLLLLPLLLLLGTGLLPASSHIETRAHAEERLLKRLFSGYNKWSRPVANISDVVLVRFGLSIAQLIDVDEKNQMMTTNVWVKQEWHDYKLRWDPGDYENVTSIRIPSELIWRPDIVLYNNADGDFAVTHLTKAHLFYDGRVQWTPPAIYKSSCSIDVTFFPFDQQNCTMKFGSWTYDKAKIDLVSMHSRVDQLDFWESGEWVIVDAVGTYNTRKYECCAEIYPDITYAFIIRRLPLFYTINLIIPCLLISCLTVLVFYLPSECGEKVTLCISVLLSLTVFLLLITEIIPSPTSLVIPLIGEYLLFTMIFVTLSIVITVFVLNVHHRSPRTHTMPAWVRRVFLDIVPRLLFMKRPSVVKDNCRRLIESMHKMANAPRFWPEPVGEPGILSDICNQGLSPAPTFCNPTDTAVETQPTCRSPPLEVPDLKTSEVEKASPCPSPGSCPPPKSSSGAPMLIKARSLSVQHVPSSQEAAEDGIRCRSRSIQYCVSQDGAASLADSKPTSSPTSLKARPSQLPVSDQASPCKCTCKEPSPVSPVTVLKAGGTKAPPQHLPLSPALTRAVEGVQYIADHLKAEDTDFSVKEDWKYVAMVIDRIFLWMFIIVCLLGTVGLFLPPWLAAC
Chain of Neuronal acetylcholine receptor; alpha4/beta2 (P12390 whole entry): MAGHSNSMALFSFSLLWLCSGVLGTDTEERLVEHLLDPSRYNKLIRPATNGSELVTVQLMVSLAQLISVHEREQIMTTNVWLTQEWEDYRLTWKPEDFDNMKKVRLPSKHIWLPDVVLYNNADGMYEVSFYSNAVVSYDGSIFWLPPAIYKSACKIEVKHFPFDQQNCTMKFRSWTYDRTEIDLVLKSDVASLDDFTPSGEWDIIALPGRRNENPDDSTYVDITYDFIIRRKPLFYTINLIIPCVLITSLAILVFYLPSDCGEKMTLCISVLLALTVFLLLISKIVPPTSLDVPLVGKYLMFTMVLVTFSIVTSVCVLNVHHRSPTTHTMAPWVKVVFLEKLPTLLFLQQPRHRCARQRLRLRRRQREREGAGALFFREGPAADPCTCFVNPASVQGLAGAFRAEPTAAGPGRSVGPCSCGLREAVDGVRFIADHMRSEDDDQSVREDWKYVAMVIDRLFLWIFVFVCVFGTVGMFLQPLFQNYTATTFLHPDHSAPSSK

The experiment addresses Neuronal acetylcholine receptor; alpha4/beta2 (Rattus norvegicus, UniProt P09483+P12390). Description: Evaluated for binding affinity towards nicotinic acetylcholine receptor alpha4-beta2. The class given is protein-complex assay.
Consider `c1cc(-c2cncc(O[C@@H]3CCNC3)c2)ccn1`, for which the IC50 is 0.571 µM.
`Clc1cccc(-c2cc(O[C@@H]3CCNC3)cnc2Cl)c1` registered an IC50 of 0.103 µM.
Then `Clc1cccc(-c2cncc(O[C@@H]3CCNC3)c2)c1`, with 0.94 µM.
Next, `Cc1cc(O[C@@H]2CCNC2)cnc1Cl`: 0.064 µM; `C=Cc1cncc(O[C@@H]2CCNC2)c1`: 0.883 µM; `c1cncc(OC2CNC2)c1`: > 10 µM.
Consider `C=Cc1cc(O[C@@H]2CCNC2)cnc1Cl`, for which the 50% inhibitory concentration (IC50) came to 0.14 µM.
With `CCN1CCC(Oc2cccnc2)C1` (stereo not given), the IC50 was > 10 µM.
Regarding `c1ccc(-c2cncc(O[C@@H]3CCNC3)c2)cc1`, the IC50 worked out at 1.82 µM.
As for `CC(C)N1CCC(Oc2cccnc2)C1` (stereo not given), the IC50 was > 10 µM.
`C#Cc1cncc(O[C@@H]2CCNC2)c1` gave an IC50 of 0.062 µM.
As for `C#Cc1cc(O[C@@H]2CCNC2)cnc1Cl`, the IC50 is 0.046 µM.
The compound `Clc1ncc(O[C@@H]2CCNC2)cc1-c1ccncc1` came in with a concentration for half-maximal inhibition (IC50) of 0.065 µM.
With `Clc1ncc(O[C@@H]2CCNC2)cc1-c1ccccc1`, the IC50 was found to be 0.075 µM.
Then `N#Cc1ccc(-c2cncc(O[C@@H]3CCNC3)c2)cc1`, with 0.544 µM.

Broadly, the IC50 is the concentration that inhibits the measured activity by half. A low value points to greater potency in that assay.
